Measurements reported in US20210299156A1 (priority 2020, published 2021).
Where two headings read alike, the source gives them in different places.

Experiments:
[1] = test system: SARS-CoV-2; type: cell-based; conditions: for EC50: MOI 0.1
[2] = test system: SARS-CoV-2; type: cell-based; conditions: MOI 0.1
[3] = test system: SARS-CoV-2; type: in vivo, K18-hACE2 mice; conditions: 12 mg/kg per day intraperitoneal osmotic pump; 7 days after virus challenge
[4] = test system: SARS-CoV-2; conditions: VERO E6 cells
[5] = biological target: plasma membrane nucleolin (Homo sapiens, UniProt P19338); parameters: key: 1: Indicates a good plasma membrane nucleolin-binding GRO.; 2: Indicates a nucleolin control (non-plasma membrane nucleolin binding); conditions: cited from earlier work
Sequence of plasma membrane nucleolin (P19338 whole entry): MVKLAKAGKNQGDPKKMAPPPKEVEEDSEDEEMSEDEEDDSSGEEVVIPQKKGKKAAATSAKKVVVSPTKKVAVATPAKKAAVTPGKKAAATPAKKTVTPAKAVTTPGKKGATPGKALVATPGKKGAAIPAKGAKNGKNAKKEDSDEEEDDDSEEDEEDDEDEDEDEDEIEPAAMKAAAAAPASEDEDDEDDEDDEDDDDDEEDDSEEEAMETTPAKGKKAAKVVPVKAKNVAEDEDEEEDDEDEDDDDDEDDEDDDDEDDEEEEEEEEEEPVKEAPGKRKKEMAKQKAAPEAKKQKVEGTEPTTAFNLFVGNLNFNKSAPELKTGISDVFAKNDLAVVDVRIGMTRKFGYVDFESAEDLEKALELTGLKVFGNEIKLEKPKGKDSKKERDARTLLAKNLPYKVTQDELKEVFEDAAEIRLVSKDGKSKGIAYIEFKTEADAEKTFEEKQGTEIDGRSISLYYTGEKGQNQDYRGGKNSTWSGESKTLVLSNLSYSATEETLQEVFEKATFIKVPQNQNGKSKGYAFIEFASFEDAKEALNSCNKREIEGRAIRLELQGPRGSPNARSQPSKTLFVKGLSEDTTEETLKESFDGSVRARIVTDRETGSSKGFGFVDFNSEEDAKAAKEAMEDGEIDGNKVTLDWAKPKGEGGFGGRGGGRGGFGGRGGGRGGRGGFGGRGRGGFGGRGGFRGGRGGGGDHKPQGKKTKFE

[6] = test system: SARS-CoV-2; type: cell-based; conditions: EPIAIRWAY tissue pretreated with 2.5, 25, 250 μM; MOI 0.1
[7] = test system: SARS-CoV-2; type: cell-based; conditions: EPINASAL tissue pretreated with 2.5, 25, 250 μM; MOI 0.1
[8] = test system: SARS-CoV-2; parameters: species or system K18-hACE2 mice; conditions: mouse, in vivo
[9] = test system: EPIAIRWAY™ tissue
[10] = PEP: drug 4 hours after virus challenge
[11] = PrEP: drug 4 hours before virus challenge

AS1411: GRO nucleolin-binding DNA aptamer, SEQ ID NO:10, ggtggtggtg gttgtggtgg tggtgg
protective effect compared to the vehicle group ([1]; 2.5 μM and 20 μM, EPIAIRWAY tissue, FIG. 29): reduction of virus
EC50 ([1]; 72 Hours Post-Infection, EPIAIRWAY tissue): 942 nM
EC50 ([1]; 96 Hours Post-Infection, EPIAIRWAY tissue): 1410 nM
EC50 ([1]; 120 Hours Post-Infection, EPIAIRWAY tissue): 650 nM
interference between AS1411 and remdesivir in combination ([1]; EPIAIRWAY tissue TCID50/ml, FIG. 27): do not interfere with each other
interference between AS1411 and dexamethasone in combination ([1]; EPIAIRWAY tissue TCID50/ml, FIG. 28): do not interfere with each other
EC50 [2, 10]: 1500 nM
EC90 [2, 10]: 3200 nM
EC50 [2, 11]: 986 nM
EC90 [2, 11]: 2160 nM
survival rate [3]: 100%
concentration at which inhibition of SARS-CoV-2 virus-induced syncytium formation begins ([4]; MOI 0.01, 72 hours): ≥ 0.625 µM
dose at which cytopathic effects of SARS-CoV-2 are markedly reduced ([4]; MOI 0.01, 72 hours): ≥ 0.625 µM
cytotoxicity ([4]; from 0.625 μM): without cytotoxicity
plasma membrane nucleolin binding (footnote designation) [5]: GRO26B^1
reduction in viral titer [6]: ≤ 5 logs fold
reduction in viral titer [7]: ≤ 3.5 logs fold
inhibiting the virus (TCID50/ml) [8]: effective for inhibiting the virus in the nasal passage and kidneys of the mice, although not as effectively as in the lungs
inhibiting the virus in the brain (TCID50/ml) [8]: not effective for inhibiting the virus in the brain
inhibiting the virus in the lungs (TCID50/ml) [8]: effective for inhibiting the virus in the lungs
toxicity in EPIAIRWAY model [9]: not toxic
